The record followed here is patent publication US7019000B1, “Method of treating a disease condition caused or exacerbated by an HPV” (Institute of Molecular & Cell Biology, priority 1998, dated 2006).

Assay [1] deals with T1, HPV-16-E6 (recombinant GST-E6 protein) (Human papillomavirus type 16, UniProt P03126).
T1 construct: The full length HPV16 E6 gene was amplified via polymerase chain reaction and cloned in the vector pGeX4T2; made in house; host or cells: E. coli strain AB1899
As to the kind of experiment: biochemical. Format: biochemical. An excerpt: Where the chelated metal is zinc, zinc release can be measured as an increase in the fluorescence of the zinc-selective fluorophore TSQ (N-(6-methoxy-8-quinolyl)-p-toluenesulfonamide) (18) in the presence of the protein and the active compound (TSQ assay).
In such an assay, the increase in fluorescence measured can be described as a percentage of the increase in fluorescence observed for a positive control compound which provides 100% zinc release. A suitable positive control compound is H2O2. Preferred compounds which may be useful in the present invention are those which release at least 30% of the chelated zinc as measured by the TSQ assay. Particularly preferred compounds for use in the present invention are those which release at least 40% of the chelated zinc, more preferably at least 50%.
In earlier studies, reduced glutathione (GSH) was required to elute recombinant glutathione sulfhydryl transferase E6 (recombinant (GST-E6)) protein during the purification process. However, the reducing activity of the GSH sulfhydryl groups protected GST-E6 protein from the chemical attack by agents, such as the disulphide based organic compounds of Formula (I) and (II). […] Individual assays were done in the presence of 9 μg GST-E6 protein, corresponding to a concentration of 1 μM GST-E6 protein and 2 μM bound zinc, assuming the presence of two Zn ions per protein.
Release of zinc from HPV-16-E6 was monitored by the change in fluorescence of the zinc-selective fluorophore TSQ (N-6-methoxy-8-quinolyl)-p-toluenesulfonamide), (Molecular Probes, Eugene, Oreg.) by modification of published procedures (25, 26, 27). In a total reaction volume of 200 μl, 9 μg (1 μM) recombinant GST-E6 protein (corresponding to a concentration of 1 μM), bound to glutathione-sepharose beads, were incubated with 10 μM of each compound or 0.6% (170 mM) H2O2 in TSQ-assay buffer (10 mM sodium phosphate buffer pH7.0, 10% glycerol) for 2 hours at room temperature (200 μl total volume in 96-well plates). Immediately after addition of 100 μM TSQ, the increase in fluorescence was measured on a SLT Fluostar (355 nm excitation filter and 460 nm emission filter, Tecan, Salzburg).
Values given are % values of Zinc release. The relative fluorescence units (RFU) were normalized to the amount of zinc released by H2O2 (regarded as 100%). The concentration of compound used was 10 μM for C27–C35, 13 μM for C37–C83, H2O2 was used at 0.3% for C27–C35 and 0.2% for C37–C83.

Assay [2] has as its target T2, E6 binding to E6BP and E6AP (Human papillomavirus type 16, UniProt P03126).
T2 construct: The open reading frame of HPV-16 E6, cloned into the Hind III and PstI site of the pSP64 plasmid; made in house; host or cells: TNT-SP6 coupled reticulocyte lysate (Promega) for E6; E. coli AB1899 for the GST fusions
As to the kind of experiment: GST-pulldown experiment, in vitro translated E6 binding to GST-E6BP/GST-E6AP. More on the design: species or system HPV-16. To be noted: 35S-Cys in vitro translated E6. The protocol: The open reading frame of HPV-16 E6, cloned into the Hind III and PstI site of the pSP64 plasmid (33), was in vitro translated with ^35S-cysteine by using the TNT-SP6 Coupled Reticulocyte Lysate System as recommend by the manufacturer (Promega). All washing and binding reactions were performed with the E6BP-binding buffer described (5) but without DTT (100 mM NaCl, 100 mM Tris-HCl pH8.0, 1% NP40, 0.1% nonfat dry milk and 1 mM PMSF. 40 μl of in vitro translated E6 plus 360 μl of E6BP-binding buffer were incubated for 2 hrs at room temperature with test compounds at difference concentrations from 0–1 mM (dissolved in DMSO at 1%), 5 mM EDTA, and H2O2 at 0.3% (85 mM). The sample was then passed over columns captaining glutathione-sepharose beads with bound GST, GST-E6, GST-E6BP or GST-E6AP proteins. The beads were heated to 95° C. in 50 μl Laemmli sample buffer (BIO-RAD) with 2.5% 2-mercaptoethanol, subjected to electrophoresis on a 15% polyacrylamide gel, fixed, stained, and autoradiographed. Interference with complex formation identified reactive compounds. Desitometric quantification was performed with a BIO-RAD/GS700 imaging desitometer.

The subject of assay [3] is PARP cleavage in HeLa cells. The experiment in a line: Western blot detection of PARP cleavage, HeLa. Format: cell-based, human. To be noted: 100 μM, one day. The protocol: 10^6 cells were plated on 10 cm petri-dishes with 10 ml medium and after attachment overnight, treated with 100 μM C16 or 0.5% DMSO for one day. At the time of cell harvest most C16-treated cells were still attached to the plate. Cells were harvested using a rubber policeman and lysed in 10 mM Hepes buffer, pH 7.2, 150 mM NaCl, 0.2% Nonidet-P40 (NP40) and 1 mM PMSF, followed by centrifugation. 20 μg of protein was loaded onto a 12% SDS-polyacrylamide gel, transferred to a nitrocellulose membrane and the membrane blocked with 5% nonfat dry milk in 20 mM Tris-Cl, pH 7.6, 150 mM NaCl, 0.05% Tween-20 overnight at 4° C. The membrane was then probed with primary antibodies against p53 (Santa Cruz Biotechnology, Santa Cruz, Calif.), β-actin (Sigma, St. Louis, Mo.) or PARP (C210, Centre de Research du Chul, Quebec, Canada) and followed by incubation with horseradish peroxidase-conjugated secondary antibody (Pierce, Rockford, Ill.). Finally, the blot was treated with an enhanced chemiluminescent detection substrate (SuperSignal, Pierce) and autoradiographed.
Increases in P53 expression are known to be associated with programmed cell death (apoptosis) (29), therefore PARP cleavage, a hallmark of apoptosis was examined in C16 treated cells.

T1 sequence (P03126 whole entry): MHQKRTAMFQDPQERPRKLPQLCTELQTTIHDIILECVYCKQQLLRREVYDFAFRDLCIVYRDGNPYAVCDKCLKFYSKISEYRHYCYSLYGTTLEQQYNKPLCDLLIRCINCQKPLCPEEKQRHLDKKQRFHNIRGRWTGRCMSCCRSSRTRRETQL
T2 sequence (P03126 whole entry, the tested form may be a part): as the sequence (P03126 whole entry) above

Consider `C1CN(SSN2CCOCC2)CCO1` [Compound C16], for which the “zinc release in original TSQ assays” value in assay [1] (GSH present at 5–10 mM) is “capable of releasing zinc”. In assay [1] (read-out: TSQ % (% values of Zinc release)), the activation at 10 µM was 63.2%. Besides, the “inhibition of E6 binding to E6BP and E6AP (GST-pulldown, FIG. 2)” value in assay [2] was “inhibits E6 binding to both cellular proteins”. For the same compound, in assay [3], the PARP cleavage result was “PARP cleavage was observed”.
